According to the NIST ThermoML archive (doi:10.1021/je3011979):

What was measured:
[1] = xn = mol fraction of the nth substance listed; settings: 101 kPa, Liquid, Vibrating tube method
[2] = excess molar enthalpy (molar enthalpy of mixing); xn = mol fraction of the nth substance listed; settings: 101 kPa, Liquid, Calvet calorimetry

CCCOC(C)=O [propyl ethanoate] + CCCCCCCCCC
Settings | excess molar enthalpy [kcal/mol] | mass density [kg/m3]
[1], 291.15 K, x1 = 0.0491 | – | 735.2
[1], 291.15 K, x1 = 0.1081 | – | 740.2
[1], 291.15 K, x1 = 0.2054 | – | 749.4
[1], 291.15 K, x1 = 0.2933 | – | 758.8
[1], 291.15 K, x1 = 0.372 | – | 768
[1], 291.15 K, x1 = 0.4514 | – | 778.3
[1], 291.15 K, x1 = 0.5221 | – | 788.4
[1], 291.15 K, x1 = 0.5892 | – | 798.8
[1], 291.15 K, x1 = 0.6468 | – | 808.4
[1], 291.15 K, x1 = 0.7079 | – | 819.6
[1], 291.15 K, x1 = 0.7955 | – | 837.5
[1], 291.15 K, x1 = 0.8151 | – | 841.8
[1], 291.15 K, x1 = 0.8554 | – | 851.2
[1], 291.15 K, x1 = 0.8932 | – | 860.5
[1], 291.15 K, x1 = 0.9454 | – | 874.3
[1], 291.15 K, x1 = 0.9719 | – | 881.5
[1], 291.15 K, x1 = 1 | – | 889.6
[1], 298.15 K, x1 = 0.0402 | – | 729.1
[1], 298.15 K, x1 = 0.1191 | – | 735.7
[1], 298.15 K, x1 = 0.2077 | – | 744
[1], 298.15 K, x1 = 0.2921 | – | 752.8
[1], 298.15 K, x1 = 0.3727 | – | 762.1
[1], 298.15 K, x1 = 0.4509 | – | 772
[1], 298.15 K, x1 = 0.5172 | – | 781.2
[1], 298.15 K, x1 = 0.5788 | – | 790.5
[1], 298.15 K, x1 = 0.6343 | – | 799.5
[1], 298.15 K, x1 = 0.6912 | – | 809.6
[1], 298.15 K, x1 = 0.7504 | – | 820.9
[1], 298.15 K, x1 = 0.7988 | – | 830.9
[1], 298.15 K, x1 = 0.8462 | – | 841.5
[1], 298.15 K, x1 = 0.8882 | – | 851.7
[1], 298.15 K, x1 = 0.9267 | – | 861.6
[1], 298.15 K, x1 = 0.9583 | – | 870.2
[1], 298.15 K, x1 = 1 | – | 882.5
[1], 318.15 K, x1 = 0.064 | – | 715.5
[1], 318.15 K, x1 = 0.1164 | – | 719.7
[1], 318.15 K, x1 = 0.1961 | – | 726.8
[1], 318.15 K, x1 = 0.2794 | – | 734.8
[1], 318.15 K, x1 = 0.3548 | – | 742.9
[1], 318.15 K, x1 = 0.4333 | – | 752.2
[1], 318.15 K, x1 = 0.4936 | – | 760
[1], 318.15 K, x1 = 0.5563 | – | 768.6
[1], 318.15 K, x1 = 0.6213 | – | 778.5
[1], 318.15 K, x1 = 0.6781 | – | 788
[1], 318.15 K, x1 = 0.7226 | – | 795.8
[1], 318.15 K, x1 = 0.7733 | – | 805.5
[1], 318.15 K, x1 = 0.8247 | – | 816.1
[1], 318.15 K, x1 = 0.867 | – | 825.5
[1], 318.15 K, x1 = 0.9092 | – | 835.5
[1], 318.15 K, x1 = 0.9463 | – | 844.9
[1], 318.15 K, x1 = 1 | – | 859.8
[1], 328.15 K, x1 = 0.0485 | – | 706.6
[1], 328.15 K, x1 = 0.1075 | – | 711.1
[1], 328.15 K, x1 = 0.196 | – | 718.6
[1], 328.15 K, x1 = 0.2952 | – | 728
[1], 328.15 K, x1 = 0.3758 | – | 736.6
[1], 328.15 K, x1 = 0.4553 | – | 746
[1], 328.15 K, x1 = 0.5227 | – | 754.7
[1], 328.15 K, x1 = 0.5818 | – | 763
[1], 328.15 K, x1 = 0.6506 | – | 773.6
[1], 328.15 K, x1 = 0.7058 | – | 782.9
[1], 328.15 K, x1 = 0.7598 | – | 792.6
[1], 328.15 K, x1 = 0.8204 | – | 804.6
[1], 328.15 K, x1 = 0.8511 | – | 811.2
[1], 328.15 K, x1 = 0.8851 | – | 818.8
[1], 328.15 K, x1 = 0.9321 | – | 830.2
[1], 328.15 K, x1 = 0.958 | – | 836.9
[1], 328.15 K, x1 = 1 | – | 848.3
[2], 291.15 K, x1 = 0.0703 | 0.0935 | –
[2], 291.15 K, x1 = 0.1623 | 0.18 | –
[2], 291.15 K, x1 = 0.2528 | 0.2536 | –
[2], 291.15 K, x1 = 0.3401 | 0.305 | –
[2], 291.15 K, x1 = 0.4179 | 0.3344 | –
[2], 291.15 K, x1 = 0.4892 | 0.3482 | –
[2], 291.15 K, x1 = 0.5501 | 0.3489 | –
[2], 291.15 K, x1 = 0.6049 | 0.3413 | –
[2], 291.15 K, x1 = 0.615 | 0.3377 | –
[2], 291.15 K, x1 = 0.6649 | 0.3196 | –
[2], 291.15 K, x1 = 0.7166 | 0.2935 | –
[2], 291.15 K, x1 = 0.7751 | 0.2524 | –
[2], 291.15 K, x1 = 0.8324 | 0.202 | –
[2], 291.15 K, x1 = 0.8924 | 0.14 | –
[2], 291.15 K, x1 = 0.9524 | 0.0739 | –
[2], 298.15 K, x1 = 0.1028 | 0.127 | –
[2], 298.15 K, x1 = 0.2102 | 0.212 | –
[2], 298.15 K, x1 = 0.3062 | 0.2768 | –
[2], 298.15 K, x1 = 0.3924 | 0.3148 | –
[2], 298.15 K, x1 = 0.4676 | 0.3332 | –
[2], 298.15 K, x1 = 0.5348 | 0.3384 | –
[2], 298.15 K, x1 = 0.5925 | 0.3334 | –
[2], 298.15 K, x1 = 0.6163 | 0.3258 | –
[2], 298.15 K, x1 = 0.6615 | 0.3119 | –
[2], 298.15 K, x1 = 0.71 | 0.2856 | –
[2], 298.15 K, x1 = 0.7601 | 0.2572 | –
[2], 298.15 K, x1 = 0.8123 | 0.215 | –
[2], 298.15 K, x1 = 0.8626 | 0.169 | –
[2], 298.15 K, x1 = 0.9119 | 0.118 | –
[2], 298.15 K, x1 = 0.9581 | 0.0619 | –
[2], 318.15 K, x1 = 0.1083 | 0.133 | –
[2], 318.15 K, x1 = 0.2064 | 0.2204 | –
[2], 318.15 K, x1 = 0.3068 | 0.2894 | –
[2], 318.15 K, x1 = 0.3885 | 0.326 | –
[2], 318.15 K, x1 = 0.4625 | 0.3456 | –
[2], 318.15 K, x1 = 0.5203 | 0.3475 | –
[2], 318.15 K, x1 = 0.571 | 0.3423 | –
[2], 318.15 K, x1 = 0.6098 | 0.3325 | –
[2], 318.15 K, x1 = 0.6588 | 0.3176 | –
[2], 318.15 K, x1 = 0.7129 | 0.2928 | –
[2], 318.15 K, x1 = 0.7682 | 0.2588 | –
[2], 318.15 K, x1 = 0.8288 | 0.212 | –
[2], 318.15 K, x1 = 0.8862 | 0.153 | –
[2], 318.15 K, x1 = 0.948 | 0.0829 | –
